Our source for the IC50 and SLFN11 protein expression values is patent publication US11529344B2, “EZH2 inhibitor combination therapies” (Pfizer Inc., priority 2017, dated 2022).

The test system of experiment [1] is H446 SCLC cells. Kind of experiment: Cell growth inhibition assay, H446 SCLC cells. The experiment is classed as cell-based. Conditions: Homo sapiens, NCI-H446, 504 h; H446 cell line, 21 days of treatment; read-out: inhibition of cell proliferation, mean IC50. As for the experimental part:
(§1) COR-L88 (92031917) cells were purchased from ECACC. […] No. 1565565).
(§2) H841, H446 and H69 cells were plated in their recommended complete culture medium described above (1 mL/well) in triplicate 12 well plates for each cell line at a density of 100,000 cells per well. Plates were incubated overnight at 37° C. and 5% CO2. Compound 1 stock was prepared at 50 mM in DMSO and was dispensed to several single-use aliquots and stored at −20° C. To prepare the compound plate, Compound 1 was diluted to 3 mM in DMSO and then 3-fold serial dilution were made in DMSO (10 doses in total). […] On Day 21, cell morphology was observed under microscope and any morphology changes upon compound treatment were recorded. […] Cell viability was measured using according to manufacturer's instructions.
(§3) Based on the strong activity observed with Compound 1 in DMS114 cells (see example 1 above), the antiproliferative activity of Compound 1 was also tested in 3 additional SCLC cell lines, namely H841, H446 and H69 using the cell proliferation assay described above. Each cell line was treated with different concentrations of Compound 1 using a 10-point dose curve (1:3 dilution in DMSO) with 3 μM to 0.1 nM for 21 days and then assessed for cell viability. […]

Experiment [2] relates to EZH2 (H3K27Me3 levels) in DMS114 SCLC cells containing wild-type EZH2. Kind of experiment: cells. The following applies: Homo sapiens, DMS-114, 72 h, read-out: H3K27Me3 IC50 ± SD (nM) (n).
Description: SCLC cell line DMS114 was obtained from American Type Culture Collection (American Type Culture Collection, ATCC CRL-2066) and cultured in Waymouth's Medium MB 752/1 (Gibco/Life Technologies Cat. 11220-035), plus 10% Fetal Bovine Serum (FBS) (Gibco/Life Technologies Cat. 10082-147) and 1% Pen/Strep. […] All cells were maintained in a humidified incubator at 37° C. with 5% carbon dioxide (CO2).
Cells were plated at 1500 cells per well in 96-well black, flat, clear-bottom plates (Falcon, BD-353219). The following day, compounds were added to the wells at 3-fold dilution with a final concentration range from 3 μM to 0.1 nM, leaving some cells empty for controls: “DMSO only (1st and 2nd antibody)” and “DMSO only (2nd antibody only)”. […] After 2 hours, the secondary antibody was removed, the plates were washed again 5 times in PBST for 5 minutes each and then fluorescent signal was detected on an Odyssey LiCoR instrument (focus length 3 mm; using both 800 nm (for secondary) and 700 nm filters together (for DRAQ5). IC50 values were calculated using a four-parameter fit with GraphPad Prism version 7.02 and arithmetic mean of all biological replicates was calculated.
EZH2 inhibitor activity was determined in the cells by measurement of the relative amount of cellular H3K27Me3 levels.
Experiment [3] concerns SLFN11 expression in SCLC cell lines. The experiment is described as follows: SLFN11 western blotting. The experiment is classed as cell-based. The following applies: 500 nM for 7 days, several SCLC cell lines. The protocol: SCLC cell lines were treated with 500 nM of Compound 1 in DMSO for 7 days and changes in SLFN11 protein levels were then assessed using western blotting. After drug treatment, cells were trypsized (adherent cells), harvested by centrifugation at 2000 rpm at room temperature, washed with PBS, followed by collection of cell pellets by centrifugation. Cell pellets were re-suspended in appropriate volume of RIPA buffer (Sigma; Catalogue #R0278; 100 ul per 5-10×10^5 cells), incubated on ice for 10-15 min, centrifuged at 12,000 g and 4° C. for 10 min and then supernatant was collected. 15 ug of total protein lysates was run on 4-12% NuPAGE™ Bis-Tris protein gel (NP0336Box) in 1×NuPAGE™ MOPS SDS Running Buffer (NP0001). Gels were run on ice at 80V for 20 minutes and then 150V for 60 minutes. […] The signal was detected using the ECL system (Thermo-34078 and -34096) and imaged on the ImageQuant LAS400 imager.
To understand the potential mechanisms responsible for EZH2i synergy observed with chemotherapy agents, we assessed the effects of Compound 1 treatment on SLFN11 expression, a sensitizer to DNA damaging agents. Several SCLC cell lines were treated with 500 nM of Compound 1 for 7 days and changes in SLFN11 protein levels were assessed using western blotting according to the methodology described above.
(In general: Immunoblotting shows a protein as a band on a membrane.)

The subject of experiment [4] is H69 SCLC cells. The experiment is described as follows: Cell growth inhibition assay, H69 SCLC cells. The experiment is classed as cell-based. Conditions: Homo sapiens, NCI-H69, 504 h; H69 cell line, 21 days of treatment; read-out: inhibition of cell proliferation, mean IC50. As for the experimental part:
as §1, §2, §3

In experiment [5] the test system is H841 SCLC cells. Kind of experiment: Cell growth inhibition assay, H841 SCLC cells. The experiment is classed as cell-based. The following applies: NCI-H841, 504 h; H841 cell line, 21 days of treatment; read-out: inhibition of cell proliferation, mean IC50. As for the experimental part:
as §1, §2, §3

Molecules are shown by their SMILES.

Turning to `COc1cc(C)[nH]c(=O)c1CN1CCc2c(Cl)cc([C@H](OC)C3COC3)c(Cl)c2C1=O` [Compound 1, 5,8-dichloro-2-[(4-methoxy-6-methyl-2-oxo-1,2-dihydro-pyridin-3-yl)methyl]-7-[(R)-methoxy(oxetan-3-yl)methyl]-3,4-dihydroisoquinolin-1(2H)-one], the IC50 in experiment [1] was 109 nM; in experiment [2], 9.48 nM; in experiment [4], 224 nM; in experiment [5] it was 73.2 nM. Besides, the SLFN11 protein expression entry in experiment [3] was “strong induction of SLFN11 expression”.
